According to patent US20260325511A1, “METHODS OF USE OF A LIPOSOMAL COMPOSITION COMPRISING AN ATR INHIBITOR” (Jazz Pharmaceuticals Therapeutics, Inc., priority 2023, published 2026):

Key:
Format in all cases: in vivo, mouse
CRC Colo205 [1] = experiment: Tumor efficacy study of liposomal ATR inhibitors + irinotecan, CRC Colo205 model (Example 3)
Protocol: Tumor efficacy studies were used to compare the efficacy of ATR inhibitors (Compounds A and C) in liposomal formulations in combination with irinotecan against irinotecan as a single agent in CRC Colo205 model.
(§1) Subcutaneous tumor models were initiated on 6-8 week old, female athymic nude mice. A cell suspension containing 5e6/100 μL CRC Colo205 cells in 1:1 PBS: Matrigel was subcutaneously injected into the hind flank of […] mice. Tumors were measured three times a week by digital caliper and reported as volume, calculated as V=π×1×w∧2 wherein 1 and w denote the longest and shortest tumor diameter respectively. Engrafted mice were then randomized into cohorts for treatment at an average tumor size of 80 mm^3.
(§2) Mice were organized into appropriate groups consisting of control (empty vehicle) and treatment groups including free irinotecan, irinotecan in combination with liposomal Compound A or liposomal Compound C, or irinotecan and berzosertib. Mice were administered free drug orally, and injected intravenously for liposomal compounds, with the required volume of sample to administer the prescribed dose to the animals based on individual mouse weights on dosing days. Animals were weighed and monitored for survival and in-life observations were collected at the time of weight measurement. Mice were monitored individually to endpoint which was either an individual tumor weight of 2000 mm^3 or other defined risk factors, whichever came first.
Animal study groups are disclosed in Table 2 (n=8 per group). Irinotecan was administered at 50 mg/kg via IP in a liposomal-free composition, once a week. Liposomal ATR inhibitors were administered at either 20 mg/kg (Group7) or 40 mg/kg (Groups 3, 5, 6, 8-10) via IV every other day. Berzosertib, clinical benchmark, was administered 5 consecutive days with 2 days off schedule. Last dose of any therapeutically active agent was administered on day 33.
Table 3 summarizes the tumor growth inhibition (TGI %) compared to the vehicle (Group 2) and tumor growth dynamic (TGD) compared to irinotecan single agent ([…]).

CRC Colo205 [2] = experiment: Dosing schedule study, once a week, efficacy similar to Example 3 (Example 4A); conditions: vs vehicle; day 28 from inoculation (day 14 from start of dosing); irinotecan 50 mg/kg IP
CRC Colo205 [3] = experiment: Dosing schedule study, efficacy similar to Example 3 (Example 4B); design: dose or concentration left out as unconfirmed; conditions: vs vehicle; day 44 from inoculation (day 12 from start of measurements)
Protocol: as §1
as §2, with “Mice were administered free drug orally, and injected intravenously for liposomal compounds, with the required volume of sample to administer the prescribed dose to the animals based on individual mouse weights on dosing days.” left out
Efficacy study similar to those described in Example 3 were also repeated where liposomal ATR inhibitors (Compounds A, C, or berzosertib) were dosed once a week or three times a week. Animal study groups are disclosed in Table 5B (n=8 per group). […]

[4] = test system: colorectal carcinoma (CRC) model (Colo205); experiment: Efficacy in colorectal cancer model Colo205 (Example 5); conditions: Lipo-G Comp. A 10-40 mg/kg IV QW or irinotecan 50 mg/kg IP QW
Protocol: as §1
as §2, with “Mice were administered free drug orally, and injected intravenously for liposomal compounds, with the required volume of sample to administer the prescribed dose to the animals based on individual mouse weights on dosing days.” left out
An efficacy study similar to those described in Example 3 above, was repeated where liposomal ATR inhibitors (Compounds A) were dosed once a week in a colorectal carcinoma (CRC) model (Colo205). Animal study groups are disclosed in Table 7 (n=8 per group)

[5] = test system: non-small-cell lung cancer model (CTG-0828 PDX); experiment: Efficacy in NSCLC model CTG-0828 PDX (Example 7)
Protocol: An efficacy study similar to those described in Example 3 above, was repeated where liposomal ATR inhibitor (Compounds A) and/or irinotecan were dosed at 50 mg/kg once a week in a non-small-cell lung cancer model (CTG-0828 PDX) for 5 weeks (QWx5) and compared to combinations of liposomal ATR inhibitor (Compounds A) and irinotecan. Animal study groups are disclosed in Table 10 (n=8 per group).

[6] = irinotecan 50 mg/kg IP QW (reference)

## CCc1c2c(nc3ccc(OC(=O)N4CCC(N5CCCCC5)CC4)cc13)-c1cc3c(c(=O)n1C2)COC(=O)[C@]3(O)CC [Irinotecan, irinotecan]
CRC Colo205 [1]; day 20, irinotecan 50 mg/kg IP QW
  TGI % (vs. vehicle) d 20: 67%
CRC Colo205 [1]; day 27, irinotecan 50 mg/kg IP QW
  TGI % (vs. vehicle) d 27: 74%
CRC Colo205 [1]; irinotecan 50 mg/kg IP QW
  CR % (complete response): 0%
  ORR % (objective response rate): 0%
CRC Colo205 [1]; [6]
  TGD (vs. single agent) %: 0%
  TGD (vs. single agent) Index: 1.0
CRC Colo205 [1]; irinotecan 50 mg/kg IP QW, n=8
  PR# (partial response), number of mice: 0 mice
  Total R (response), number of mice: 0 mice
CRC Colo205 [2]
  TGI % d 28 (d 14): 55.4%
CRC Colo205 [3]
  TGI % D 44(d 12): 0%
[4]
  activity as single agent: no/limited activity
[5]; 50 mg/kg QWx5
  CR tumor regression rate: 0%
  Tumor Growth Delay Index (TGDI): 4.4
[5]; 50 mg/kg QWx5, statistically significant improvement
  survival: median time to reach and exceed a tumor burden of 1 cm: 100 days
[5]; 50 mg/kg each agent, QWx5
  Max % Tumor Grown Inhibition (TGI): 91%
  Regression * (% max): 60%
  TGDI (vs. vehicle): 4.4
